Where no end group is shown, it is not given here.
Key:
[1] = test system: murine primary keratinocytes; experiment: Cytokines in culture supernatant of murine primary keratinocytes (V-PLEX Proinflammatory Panel1 / CXCL1 ELISA); format: cell-based, mouse
SpyCEP = conditions: incubated overnight with purified SpyCEP or PBS; mass spectrometry read-out; CXCL1 fragments of 5.9 kDa and 1.3 kDa
GAS [2] = experiment: Therapeutic treatment in GAS-induced necrotizing fasciitis mouse model; format: in vivo, mouse (C57BL6)
SpeB = SpeB (Streptococcus pyogenes, UniProt P0C0J0)
[3] = test system: human 3D organotypic skin model; experiment: IL-8 ELISA on culture supernatant of human 3D organotypic skin model; format: cell-based; conditions: human 3D skin equivalent model stimulated with 3.6 μM hepcidin; n ≥ 3 per group
[4] = test system: human HaCat keratinocyte cell line; experiment: IL-8 ELISA on culture supernatant of HaCat; format: cell-based; conditions: HaCat stimulated with 3.6 μM hepcidin; n ≥ 3 per group
GAS [5] = experiment: Rescue experiment: CXCL1 injection into GAS-infected Hamp1Δker mice; conditions: 1 µg/mouse rCXCL1 s.c. with infection and intralesionally at 24, 48 and 72 h, n ≥ 4 per group
Description: (G) Bacterial count in the skin of Hamp1^lox/lox and Hamp1Δ^ker mice injected daily with CXCL1 or PBS; n ≥ 4 per group.
were performed in a C57BL6 background, using 8-12 week old male littermates.
Mouse model of GAS infection
A well-established model of necrotizing soft tissue infection was adapted for this study (3, 4).
In brief, Hamp1lox/lox and Hamp1Δker mice male littermates were subcutaneously injected with
107 c.f.u. of M1T1 5448 GAS. Weight loss and lesion size of mice were estimated daily. After
96 hours, mice were sacrificed and skin necrotic ulcers, spleen, and blood (via retro orbital
bleeding) were recovered and homogenized in sterile PBS. Serial dilutions of tissue
homogenate were spread on THA plates to enumerate bacterial colony forming units (c.f.u.).
For the rescue experiment, Hamp1lox/lox and Hamp1Δker littermates were subcutaneously
infected with 107 c.f.u. of GAS with PBS or 1 µg/mouse of recombinant CXCL1 (rCXCL1;
R&D system, 1395-KC-025/CF). Mice were intralesionally injected again at 24, 48 and 72 h
with PBS or 1 µg of rCXCL1.

Molecule: Ferric Ammonium Citrate [iron]
- CXCL1 production (ELISA) ([1]; murine primary keratinocytes stimulated 3 hours with 500 μM ferric ammonium citrate (FAC), n = 3 per group): stimulated CXCL1 production

Molecule: hepcidin (DTNFPICIFCCKCCNNSQCGICCKT; ends and bridges not checked; cysteine pairing not given here; UniProt Q9EQ21 59-83, looked up)
- cleavage by SpyCEP (SpyCEP): not cleaved
- bacterial dissemination in CXCL1–/– mice (GAS [2]; CXCL1–/– mice, hepcidin treatment (Supplemental Figure 8)): did not prevent bacterial dissemination
- weight variation (GAS [2]; WT mice, s.c. 1 μg hepcidin 24 h after GAS infection, then 500 ng at 48 and 72 h, 4 days, n = 9): recovered their initial weight
- mice with absolutely no bacterial dissemination (bacterial count in spleen) (GAS [2]; WT mice, s.c. 1 μg hepcidin 24 h after GAS infection, then 500 ng at 48 and 72 h, spleen c.f.u. at 96 hours, n = 9, all control mice disseminated): 7 of the 9
- signs of systemic disease (GAS [2]; WT mice, s.c. 1 μg hepcidin 24 h after GAS infection, then 500 ng at 48 and 72 h, vs PBS (weight loss, rough hair coat, hunched posture), n = 9): did not present any signs of systemic disease
- neutrophil recruitment (GAS [2]; WT mice, s.c. 1 μg hepcidin at inoculation site 24 h after GAS infection, then 500 ng at 48 and 72 h, n = 6 per group): increase in neutrophil recruitment
- CXCL1 in culture supernatant ([1]; murine primary keratinocytes incubated with 0.36 μM and 3.6 μM synthetic hepcidin for 1 or 3 hours, V-PLEX cytoplex, n = 3 per group): dose-dependent increase
- CXCL1 induction measured by ELISA ([1]; murine primary keratinocytes, 3.6 uM hepcidin, 1 or 3 hours, N=3 per group (Supplemental Figure 5)): confirmed by ELISA
- cleavage by SpeB (SpeB): not cleaved

Molecule: human hepcidin (DTHFPICIFCCGCCHRSKCGMCCKT; ends and bridges not checked; cysteine pairing not given here; UniProt P81172 60-84, looked up) [human hepcidin used to stimulate HaCat and human 3D organotypic skin model]
- production of IL-8 [3]: induce the production of IL-8
- production of IL-8 [4]: induce the production of IL-8

B1: CXCL1 (protein, UniProt P12850 25-96, looked up)
Growth-regulated alpha protein: APIANELRCQCLQTMAGIHLKNIQSLKVLPSGPHCTQTEVIATLKNGREACLDPEAPLVQKIVQKMLKGVPK
- cleavage by SpyCEP (SpyCEP): cleaved
- bacterial count in the skin lesion (GAS [5]): significantly decreased the number of bacteria

Source: paper PMC6934188, “Epidermal hepcidin is required for neutrophil response to bacterial infection” (The Journal of Clinical Investigation, 2019)
